Columns and labels:
[1] = system: C. elegans; assay: C. elegans lifespan analysis on E. coli plates; assay type: in vivo, Caenorhabditis elegans; conditions: for effect of supplementation on extended lifespan of C. elegans on ubiG mutant bacteria: Q-deficient ubiG bacteria; for effect of supplementation on extended lifespan of C. elegans on ubiG mutant bacteria / effect of supplementation on lifespan of C. elegans on control HT115(DE3) strain: test for toxic effect of supplement; for effect of supplementation on lifespan of C. elegans on control HT115(DE3) strain: control bacteria; for effect of media supplementation on C. elegans lifespan on aroD mutant bacteria: supplement 40 μg/ml (PABA 0.29 mM), glp-4(bn1), 25° C.; for increase in C. elegans lifespan: vs control
Procedure: Nematode growth media was prepared as described using 2.5 g/l soy peptone (Sigma P6713). Where indicated plates were supplemented with shikimic acid (40 μg/ml), I-phenylalanine, I-tryptophan and I-tyrosine (all at 40 μg/ml), 4-amino benzoic acid (PABA 40 μg/ml=0.29 mM), sodium folate (0.29 mM and 0.58 mM folic acid dissolved in NaOH). For the kanamycin treatment of bacteria, 80 μl of 10 mM kanamycin was added after 24 hours of bacterial growth as described. All compounds were from Sigma-Aldrich.
For all lifespans and unless indicated differently in Supplementary Table 1, survival analyses were performed by the following method: Eggs were prepared from bleaching adults to remove all microbes, and then placed onto plates containing aroD mutant bacteria. Animals were raised at 15° C. until adulthood due to the temperature sensitivity of mutant phenotypes. Gravid adulthoods were used to lay eggs onto fresh aroD mutant plates. At L3/L4 these animals were transferred to 25° C. and larvae of equivalent stage were put onto at least 5 plates of 25 worms for each condition. Animals were transferred to fresh plates after 7 and 14 days and scored for survival every 2-3 days. Lifespan data was analysed by JMP statistical software (SAS). Where relevant, statistical significance was determined using the Log-Rank and Wilcoxon tests of fitting to the Kaplan-Meier survival model.

[2] = system: yeast; conditions: cited from earlier work
[3] = system: worms; conditions: cited from earlier work
[4] = system: flies; conditions: cited from earlier work
[5] = system: one species of fish; conditions: cited from earlier work
[6] = system: humans aged 60 to 81; conditions: cited from earlier work
[7] = system: E. coli; assay: HPLC/MS folate levels in bacteria; assay type: cell-based; conditions: SMX-treated OP50 bacteria, duplicate experiments, FIG. 9B
Description: Both the aroD mutation and treatment with SMX inhibit folate synthesis in bacteria. […] This folate species is approximately three fold less abundant in the aroD mutant compared to the control strain (in duplicate experiments, FIG. 9A) and at least 10 times less abundant in the SMX-treated OP50 bacteria compared to the untreated control (in duplicate experiments, FIG. 9B).

[8] = system: C. elegans; assay: HPLC/MS folate levels in worms; assay type: in vivo; conditions: worms raised on OP50 bacteria treated with SMX, duplicate experiments, FIG. 9D
Description: Similar techniques were used to quantify levels of folates in worms, although proteinase K digestion of the worms was used to get a good extraction of folates. The most abundant folate species in C. elegans using this method of detection was 5-methyl tetrahydrofolate pentaglutamate. Worms raised on aroD bacteria had 25 to 30% less of this folate species than worms on the control bacteria (in duplicate experiments, FIG. 9C). Worms raised OP50 bacteria treated with SMX had approximately 75% less folate than worms raised on the control bacteria (in duplicate experiments, FIG. 9D).

[9] = system: E. coli; assay: Effect on E. coli growth (absorbance, relative cell numbers); assay type: cell-based
Procedure: The inventors investigated the effect of SMX on E. coli growth. Under the conditions that caused an increase in C. elegans lifespan, they scraped the E. coli from the agar plates used to culture worms after two days of growth and used absorbance to estimate relative cell numbers. 128 μg/ml SMX caused a mean effect of reducing E. coli numbers by approx 11% (+/−5%, standard error, n=4). There was no effect on growth in liquid culture with the same nutrient conditions as used for lifespan analysis (FIG. 10).

Nc1nc2ncc(CNc3ccc(C(=O)N[C@@H](CCC(=O)O)C(=O)O)cc3)nc2c(=O)[nH]1 [folate, folic acid]
effect of supplementation on extended lifespan of C. elegans on ubiG mutant bacteria [1]: no effect
effect of adding folic acid to SMX plates on C. elegans lifespan ([1]; SMX plates, FIG. 8): reverses the effect of SMX
effect of supplementation on lifespan of C. elegans on control HT115(DE3) strain [1]: no effect
effect of folate supplementation on C. elegans lifespan on aroD mutant ([1]; doubled folate concentration (0.58 mM, 2× folate) vs 1× folate, difference not statistically significant): slightly shorter
effect of folate supplementation on C. elegans lifespan extension on aroD mutant ([1]; same molar concentration as PABA (0.29 mM, 1× folate)): reduced the C. elegans lifespan extension substantially but not completely

Oc1ccc(C=Cc2cc(O)cc(O)c2)cc1 [resveratrol]
extension of lifespan [2]: up to 60%
extension of lifespan [3]: up to 30%
extension of lifespan [4]: up to 30%
extension of lifespan [5]: ~60%

O=C(O)C1=C[C@@H](O)[C@@H](O)[C@H](O)C1 [shikimic acid]
effect of media supplementation on C. elegans lifespan on aroD mutant bacteria [1]: revert to normal

N[C@@H](Cc1c[nH]c2ccccc12)C(=O)O [tryptophan]
effect of media supplementation on C. elegans lifespan on aroD mutant bacteria [1]: small negative effect

Nc1ccc(C(=O)O)cc1 [PABA, para-aminobenzoic acid]
effect of supplementation on extended lifespan of C. elegans on ubiG mutant bacteria [1]: no effect
effect of supplementation on lifespan of C. elegans on control HT115(DE3) strain [1]: no effect
effect of media supplementation on C. elegans lifespan on aroD mutant bacteria [1]: reversed the lifespan increase completely

CC(C)(N)C(=O)N[C@H](COCc1ccccc1)C(=O)N1CCC2(CC1)CN(S(C)(=O)=O)c1ccccc12 [MK-677]
muscle mass lost due to ageing restored [6]: 20%

Cc1cc(NS(=O)(=O)c2ccc(N)cc2)no1 [SMX, sulfamethoxazole]
increase in C. elegans lifespan ([1]; 16 μg/ml SMX treatment of the bacteria): around 24%
increase in C. elegans lifespan ([1]; 64 μg/ml SMX, not significantly different to 16 μg/ml): 27%
increase in C. elegans lifespan ([1]; 128 μg/ml SMX, significantly different to 16 μg/ml (p<0.05)): 33%
effect on C. elegans lifespan ([1]; inhibition of the bacterial folate pathway, FIG. 6): lifespan can be increased
formyl tetrahydrofolate triglutamate abundance, decrease vs untreated control [7]: at least 10 times
less folate (5-methyl tetrahydrofolate pentaglutamate) in worms vs worms on control bacteria [8]: approximately 75%
reduction of E. coli numbers ([9]; 128 μg/ml SMX, agar plates, two days of growth, absorbance, +/−5% standard error, n=4): approx 11%
effect on E. coli growth in liquid culture ([9]; same nutrient conditions as lifespan analysis, FIG. 10): no effect

From US20130039856A1, “Products and Methods” (priority 2010, published 2013)
